Data as given in patent US10206394B2, “Herbicidal compounds” (Syngenta Participations AG, priority 2014, dated 2019).
Where two headings read alike, the source gives them in different places.

Legend:
Assay in all cases: Glasshouse assay for herbicidal activity (pre- and post-emergence), percentage phytotoxicity
Assay type in all cases: in vivo
[1] = tested on: Echinochloa crus-galli (ECHCG); conditions: Echinochloa crus-galli, 250 g/ha, visual assessment (100%=total damage, 0%=no damage)
Outline: (§1)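 Seeds were sown in standard soil in pots and grown one day (pre-emergence) or about 12 days (post-emergence) before herbicide application. Plants were kept at 24/18 °C (warm-climate) or 20/16 °C (cool-climate) day/night, 16 h light, 65% humidity, watered twice daily, and damage was scored visually at 15 DAA (POST) or 20 DAA (PRE).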

[2] = tested on: Alopecurus myosuroides (ALOMY); conditions: Alopecurus myosuroides, 250 g/ha, visual assessment (100%=total damage, 0%=no damage)
Outline: as §1

Avena fatua (AVEFA) = conditions: Avena fatua, 250 g/ha, visual assessment (100%=total damage, 0%=no damage)
Outline: as §1

Lolium perenne (LOLPE) = conditions: Lolium perenne, 250 g/ha, visual assessment (100%=total damage, 0%=no damage)
Outline: as §1

[3] = post-emergence, 360 h, post-emergence, 15 DAA, read-out: Post-emergence herbicidal activity (percentage phytotoxicity) ECHCG POST
[4] = pre-emergence, 480 h, pre-emergence, 20 DAA, read-out: Pre-emergence herbicidal activity (percentage phytotoxicity) ECHCG PRE
[5] = post-emergence, 360 h, post-emergence, 15 DAA, read-out: Post-emergence herbicidal activity (percentage phytotoxicity) ALOMY POST
[6] = pre-emergence, 480 h, pre-emergence, 20 DAA, read-out: Pre-emergence herbicidal activity (percentage phytotoxicity) ALOMY PRE
[7] = post-emergence, 360 h, post-emergence, 15 DAA, read-out: Post-emergence herbicidal activity (percentage phytotoxicity) AVEFA POST
[8] = pre-emergence, 480 h, pre-emergence, 20 DAA, read-out: Pre-emergence herbicidal activity (percentage phytotoxicity) AVEFA PRE
[9] = post-emergence, 360 h, post-emergence, 15 DAA, read-out: Post-emergence herbicidal activity (percentage phytotoxicity) LOLPE POST
[10] = pre-emergence, 480 h, pre-emergence, 20 DAA, read-out: Pre-emergence herbicidal activity (percentage phytotoxicity) LOLPE PRE

CC#Cc1cc(C)c(C2C(=O)CC(CC(=O)N3CCOCC3)C2=O)c(C)c1 (centres unmarked) [Compound B155]
pest or weed control at 250 g/ha [1, 3]: 100% | pest or weed control at 250 g/ha [1, 4]: 100% | pest or weed control at 250 g/ha [2, 5]: 100% | pest or weed control at 250 g/ha [2, 6]: 90% | pest or weed control at 250 g/ha (Avena fatua (AVEFA); [7]): 100% | pest or weed control at 250 g/ha (Avena fatua (AVEFA); [8]): 100% | pest or weed control at 250 g/ha (Lolium perenne (LOLPE); [9]): 100% | pest or weed control at 250 g/ha (Lolium perenne (LOLPE); [10]): 100%

CC#Cc1cc(C)c(C2C(=O)CC(CC(=O)NCCCOC)C2=O)c(C)c1 (centres unmarked) [Compound B156]
pest or weed control at 250 g/ha [1, 3]: 100% | pest or weed control at 250 g/ha [1, 4]: 100% | pest or weed control at 250 g/ha [2, 5]: 100% | pest or weed control at 250 g/ha [2, 6]: 100% | pest or weed control at 250 g/ha (Avena fatua (AVEFA); [7]): 100% | pest or weed control at 250 g/ha (Avena fatua (AVEFA); [8]): 100% | pest or weed control at 250 g/ha (Lolium perenne (LOLPE); [9]): 100% | pest or weed control at 250 g/ha (Lolium perenne (LOLPE); [10]): 100%

C=CCNC(=O)CC1CC(=O)C(c2c(C)cc(C#CC)cc2C)C1=O (centres unmarked) [Compound B157]
pest or weed control at 250 g/ha [1, 3]: 100% | pest or weed control at 250 g/ha [1, 4]: 100% | pest or weed control at 250 g/ha [2, 5]: 100% | pest or weed control at 250 g/ha [2, 6]: 100% | pest or weed control at 250 g/ha (Avena fatua (AVEFA); [7]): 100% | pest or weed control at 250 g/ha (Avena fatua (AVEFA); [8]): 90% | pest or weed control at 250 g/ha (Lolium perenne (LOLPE); [9]): 100% | pest or weed control at 250 g/ha (Lolium perenne (LOLPE); [10]): 100%

Cc1cc(C)c(C2C(=O)CC(CC(=O)NCC3CC3(F)F)C2=O)c(C)c1 (centres unmarked) [Compound B158]
pest or weed control at 250 g/ha [1, 3]: 80% | pest or weed control at 250 g/ha [1, 4]: 100% | pest or weed control at 250 g/ha [2, 5]: 90% | pest or weed control at 250 g/ha [2, 6]: 90% | pest or weed control at 250 g/ha (Avena fatua (AVEFA); [7]): 80% | pest or weed control at 250 g/ha (Avena fatua (AVEFA); [8]): 90% | pest or weed control at 250 g/ha (Lolium perenne (LOLPE); [9]): 90% | pest or weed control at 250 g/ha (Lolium perenne (LOLPE); [10]): 100%

Cc1cc(C)c(C2C(=O)CC(CC(=O)NCC=C(Cl)Cl)C2=O)c(C)c1 (centres unmarked) [Compound B159]
pest or weed control at 250 g/ha [1, 3]: 80% | pest or weed control at 250 g/ha [1, 4]: 90% | pest or weed control at 250 g/ha [2, 5]: 70% | pest or weed control at 250 g/ha [2, 6]: 80% | pest or weed control at 250 g/ha (Avena fatua (AVEFA); [7]): 90% | pest or weed control at 250 g/ha (Avena fatua (AVEFA); [8]): 0% | pest or weed control at 250 g/ha (Lolium perenne (LOLPE); [9]): 90% | pest or weed control at 250 g/ha (Lolium perenne (LOLPE); [10]): 90%

Cc1cc(-c2ncc(Cl)cc2F)cc(C)c1C1C(=O)CC(CC(=O)NCC2CC2(Cl)Cl)C1=O (centres unmarked) [Compound B160]
pest or weed control at 250 g/ha [1, 3]: 100% | pest or weed control at 250 g/ha [1, 4]: 100% | pest or weed control at 250 g/ha [2, 5]: 100% | pest or weed control at 250 g/ha [2, 6]: 90% | pest or weed control at 250 g/ha (Avena fatua (AVEFA); [7]): 100% | pest or weed control at 250 g/ha (Avena fatua (AVEFA); [8]): 80% | pest or weed control at 250 g/ha (Lolium perenne (LOLPE); [9]): 100% | pest or weed control at 250 g/ha (Lolium perenne (LOLPE); [10]): 90%

C/C=C/CNC(=O)CC1CC(=O)C(c2c(C)cc(-c3ncc(Cl)cc3F)cc2C)C1=O (centres unmarked) [Compound B161]
pest or weed control at 250 g/ha [1, 3]: 100% | pest or weed control at 250 g/ha [1, 4]: 90% | pest or weed control at 250 g/ha [2, 5]: 100% | pest or weed control at 250 g/ha [2, 6]: 90% | pest or weed control at 250 g/ha (Avena fatua (AVEFA); [7]): 100% | pest or weed control at 250 g/ha (Avena fatua (AVEFA); [8]): 80% | pest or weed control at 250 g/ha (Lolium perenne (LOLPE); [9]): 100% | pest or weed control at 250 g/ha (Lolium perenne (LOLPE); [10]): 100%

Cc1cc(-c2ncc(Cl)cc2F)cc(C)c1C1C(=O)CC(CC(=O)NC/C=C/Cl)C1=O (centres unmarked) [Compound B162]
pest or weed control at 250 g/ha [1, 3]: 100% | pest or weed control at 250 g/ha [1, 4]: 100% | pest or weed control at 250 g/ha [2, 5]: 100% | pest or weed control at 250 g/ha [2, 6]: 100% | pest or weed control at 250 g/ha (Avena fatua (AVEFA); [7]): 100% | pest or weed control at 250 g/ha (Avena fatua (AVEFA); [8]): 90% | pest or weed control at 250 g/ha (Lolium perenne (LOLPE); [9]): 100% | pest or weed control at 250 g/ha (Lolium perenne (LOLPE); [10]): 100%

CC(C)=CCNC(=O)CC1CC(=O)C(c2c(C)cc(C)cc2C)C1=O (centres unmarked) [Compound B163]
pest or weed control at 250 g/ha [1, 3]: 90% | pest or weed control at 250 g/ha [1, 4]: 90% | pest or weed control at 250 g/ha [2, 5]: 80% | pest or weed control at 250 g/ha [2, 6]: 90% | pest or weed control at 250 g/ha (Avena fatua (AVEFA); [7]): 80% | pest or weed control at 250 g/ha (Avena fatua (AVEFA); [8]): 50% | pest or weed control at 250 g/ha (Lolium perenne (LOLPE); [9]): 80% | pest or weed control at 250 g/ha (Lolium perenne (LOLPE); [10]): 100%

CCc1cc(OCC(F)(F)F)cc(C)c1C1C(=O)CC(CC(=O)N2CCOCC2)C1=O (centres unmarked) [Compound B164]
pest or weed control at 250 g/ha [1, 3]: 100% | pest or weed control at 250 g/ha [1, 4]: 100% | pest or weed control at 250 g/ha [2, 5]: 100% | pest or weed control at 250 g/ha [2, 6]: 100% | pest or weed control at 250 g/ha (Avena fatua (AVEFA); [7]): 90% | pest or weed control at 250 g/ha (Avena fatua (AVEFA); [8]): 100% | pest or weed control at 250 g/ha (Lolium perenne (LOLPE); [9]): 100% | pest or weed control at 250 g/ha (Lolium perenne (LOLPE); [10]): 100%
